Data: patent publication US20260191809A1, “Pharmaceutical Compositions Of D10-Docosahexaenoic Acid Or Esters Thereof” (BioJiva LLC, priority 2022, published 2026)

Legend:
geographic atrophy = test: Protection against geographic atrophy after intravitreal ferric ammonium citrate; format: in vivo, C57BL/6J mice
Description: In this example, two cohorts of adult male wild-type C57BL/6J mice (Jackson Labs) were used. Both cohorts were fed identical feed containing 0.25% or 0.5% D-DHA or matching amounts of DHA as controls. After 4 weeks, the mice were given an intravitreal injection of 1 microliter of 0.5 millimolar ferric ammonium citrate diluted in 0.9% saline (test) or 1 microliter of 0.9% saline (control). Mice were then continued on their respective diets for 4 weeks after injection in order to evaluate whether D-DHA could protect against geographic atrophy which is related to AMD.

[1] = Predicted steady-state D-DHA substitution and plasma decline without dosing in patients, modeled from the mouse data; set-up: species or system human; details: for D-DHA substitution rate at steady-state (% of total DHA): DHA in human diet 130 mg
Description: In contrast to controlled experimental diets, naturally occurring DHA is consumed by patients treated with D-DHA which can dilute the relative percentage of administered D-DHA absorbed with the total DHA pool and its final concentration at steady state in blood and eventually in the target tissue such as retina. The data and standard curves referred to above allow for the determination of retinal steady-state active D-DHA concentrations with reasonable accuracy by calculating the D-DHA/total DHA ratio in plasma and/or red blood cells. Table 4 exemplifies this by using a mean daily dietary intake of about 130 mg of DHA per day (which represents the 90th percentile of the mean usual DHA intake by males >51 years of age in the US.
FIGS. 3, 4, 5, and 6 illustrate how measuring plasma and red blood cell active D-DHA concentrations can be used to predict expected retinal steady-state concentrations. With a known fixed daily dose and the measured of active D-DHA substitution rate at steady-state, this also allows to approximate and monitor the mean dietary DHA intake of individual patients and permits either a timely adjustment of the daily D-DHA dose or dietary interventions to reduce natural DHA intake until the desired therapeutic active D-DHA substitution levels, preferably about 50% or more, can be reached.
In each case, the first order kinetics evidence that a dose of 250 mg dose of D-DHA will provide for a steady-state ratio of active D-DHA based on the total DHA concentration present, as set forth in Table 4. Extrapolating backwards from the case in Table 4, a dose of at least 130 mg/day of D-DHA should provide a 1:1 ratio of active D-DHA to DHA. That ratio has been shown above to be therapeutic. And a dose of 250 mg of higher should provide a ratio of 1.9:1 or higher which provides a margin for non-compliance as described herein above.
Tables 5, 6, and 7 are based on Table 2 and describe the time it takes for plasma D-DHA levels to fall below 50% or below 20% with 5 different daily doses of D-DHA in (i) patients in the 90th percentile of daily intake consuming up to 130 mg DHA (Table 5), (ii) those in the 95th percentile with a daily intake of up to 180 mg DHA (Table 6), and (iii) an example of a patient consuming more than one meal of oily fish per week with up to 260 mg daily DHA intake.

[2] = as above; set-up: species or system human
[3] = mouse, in vivo
Description: Mature adult C57BL/6J mice were fed for 77 days with a customized rodent diet containing 0.5% w/w D-DHA and no natural DHA. The animals were sacrificed, and plasma, red blood cells and retinal tissues were dissected at study Days 8, 19, 38, 77, (six animals per time point, 3 males+3 females). Active D-DHA+DHA were extracted from samples and derivatized into methyl esters with a mixture of heptane/toluene (63:37 by volume), and methanol/dimethoxypropane/sulfuric acid (85:11:4 by volume) by gentle shaking at 80° C. for 2 hours, followed by separation and drying down of the organic phase under nitrogen. D-DHA+DHA methyl esters were structurally identified and quantified by gas chromatography coupled with a tandem mass spectrometry detector and D-DHA substitution levels (in percent of total DHA) were calculated.

[4] = Daily D-DHA Dose 250 mg, Background DHA/Day 130 mg
[5] = Daily D-DHA Dose 250 mg, Background DHA/Day 180 mg
[6] = Daily D-DHA Dose 250 mg, Background DHA/Day 260 mg
[7] = Daily D-DHA Dose 500 mg, Background DHA/Day 130 mg
[8] = Daily D-DHA Dose 500 mg, Background DHA/Day 180 mg
[9] = Daily D-DHA Dose 500 mg, Background DHA/Day 260 mg
[10] = Daily D-DHA Dose 750 mg, Background DHA/Day 260 mg
[11] = Daily D-DHA Dose 1000 mg, Background DHA/Day 260 mg

- ratio of D-DHA to DHA at steady state ([1]; 250 mg D-DHA per day, on average about 130 mg per day of DHA, plasma, red blood cells, liver, skeletal muscle): 1.92 to 1
- Time to reach 20% in Plasma (0.2:1 D-DHA to DHA Ratio) w/o taking oral D-DHA [1, 4]: ≤ 77 days
- Time to reach ≤50% in Plasma (1:1 D-DHA to DHA Ratio) w/o taking oral D-DHA [1, 4]: ≤ 22 days
- Days to reach ≤50% in Plasma (1:1 D-DHA to DHA Ratio) w/o taking oral D-DHA [1, 5]: ≤ 11 days
- Time to reach 20% in Plasma (0.2:1 D-DHA to DHA Ratio) w/o taking oral D-DHA [1, 5]: ≤ 66 days
- Days to reach ≤50% in Plasma (1:1 D-DHA to DHA Ratio) w/o taking oral D-DHA [1, 6]: below 50%
- Time to reach 20% in Plasma (0.2:1 D-DHA to DHA Ratio) w/o taking oral D-DHA [1, 6]: ≤ 29 days
- Time to reach 20% in Plasma (0.2:1 D-DHA to DHA Ratio) w/o taking oral D-DHA [1, 7]: ≤ 46 days
- Time to reach ≤50% in Plasma (1:1 D-DHA to DHA Ratio) w/o taking oral D-DHA [1, 7]: ≤ 6 days
- Days to reach ≤50% in Plasma (1:1 D-DHA to DHA Ratio) w/o taking oral D-DHA [1, 8]: ≤ 35 days
- Time to reach 20% in Plasma (0.2:1 D-DHA to DHA Ratio) w/o taking oral D-DHA [1, 8]: ≤ 90 days
- Days to reach ≤50% in Plasma (1:1 D-DHA to DHA Ratio) w/o taking oral D-DHA [1, 9]: ≤ 8 days
- Time to reach 20% in Plasma (0.2:1 D-DHA to DHA Ratio) w/o taking oral D-DHA [1, 9]: ≤ 63 days
- Time to reach ≤50% in Plasma (1:1 D-DHA to DHA Ratio) w/o taking oral D-DHA ([1]; Daily D-DHA Dose 750 mg, Background DHA/Day 130 mg): ≤ 60 days
- Days to reach ≤50% in Plasma (1:1 D-DHA to DHA Ratio) w/o taking oral D-DHA ([1]; Daily D-DHA Dose 750 mg, Background DHA/Day 180 mg): ≤ 49 days
- Days to reach ≤50% in Plasma (1:1 D-DHA to DHA Ratio) w/o taking oral D-DHA [1, 10]: ≤ 26 days
- Time to reach 20% in Plasma (0.2:1 D-DHA to DHA Ratio) w/o taking oral D-DHA [1, 10]: ≤ 81 days
- Time to reach ≤50% in Plasma (1:1 D-DHA to DHA Ratio) w/o taking oral D-DHA ([1]; Daily D-DHA Dose 1000 mg, Background DHA/Day 130 mg): ≤ 70 days
- Days to reach ≤50% in Plasma (1:1 D-DHA to DHA Ratio) w/o taking oral D-DHA ([1]; Daily D-DHA Dose 1000 mg, Background DHA/Day 180 mg): ≤ 59 days
- Days to reach ≤50% in Plasma (1:1 D-DHA to DHA Ratio) w/o taking oral D-DHA [1, 11]: ≤ 38 days
- Time to reach 20% in Plasma (0.2:1 D-DHA to DHA Ratio) w/o taking oral D-DHA [1, 11]: ≤ 93 days
- Time to reach ≤50% in Plasma (1:1 D-DHA to DHA Ratio) w/o taking oral D-DHA ([1]; Daily D-DHA Dose 1250 mg, Background DHA/Day 130 mg): ≤ 77 days
- Days to reach ≤50% in Plasma (1:1 D-DHA to DHA Ratio) w/o taking oral D-DHA ([1]; Daily D-DHA Dose 1250 mg, Background DHA/Day 180 mg): ≤ 67 days
- Days to reach ≤50% in Plasma (1:1 D-DHA to DHA Ratio) w/o taking oral D-DHA ([1]; Daily D-DHA Dose 1250 mg, Background DHA/Day 260 mg): ≤ 47 days
- D-DHA substitution rate at steady-state (% of total DHA) ([1]; Fixed daily D-DHA dose 250 mg): 66%
- D-DHA substitution rate at steady-state (% of total DHA) ([1]; Fixed daily D-DHA dose 500 mg): 79%
- D-DHA substitution rate at steady-state (% of total DHA) ([1]; Fixed daily D-DHA dose 1000 mg): 88%
- time to plasma steady state concentration of active D-DHA after the start of therapy ([1]; plasma, patients): about 14 days
- time to red blood cell steady state concentration of active D-DHA after the start of therapy ([2]; red blood cell, patients): about 45 days
- time to steady state concentration of active D-DHA after start of therapy ([2]; skeletal muscle tissue): about 11 weeks
- accretion half-life [3]: ~210 h
Compound: [2H]C([2H])(/C=C\CC)/C=C\C([2H])([2H])/C=C\C([2H])([2H])/C=C\C([2H])([2H])/C=C\C([2H])([2H])/C=C\CCC(=O)O [D-DHA, D-10-docosahexaenoic acid]
- protection against geographic atrophy (geographic atrophy; concentration of D-DHA at least 50% of the total DHA in the retina, feed 0.25% or 0.5% D-DHA, 4 weeks after iron injection): fully protected
- protection against geographic atrophy (geographic atrophy; lower concentrations of D-DHA to DHA in the retina (below 50%)): protection was achieved but at reduced rates
- protection against geographic atrophy (geographic atrophy; ratios of about 1:4 of D-DHA to DHA): protection is accorded
- protection against geographic atrophy (geographic atrophy; ratios of at least about 1:1 D-DHA to DHA): maximal
